This note sets out measurements from US10195186B2.

Experiment [1] deals with human sortilin (S-18 cells) (Homo sapiens (Human), UniProt Q99523). In words: Endogenous PGRN endocytosis assay (PGRN ELISA of media). Format: cell-based. The following applies: PGRN allowed to accumulate 24 hrs, compounds added day 2, further 24 hrs. (An ELISA detects its analyte on a solid surface through an enzyme-linked reagent.)
Procedure: Stable cell lines expressing human sortilin (S-18) were generated by transfecting HEK293 cells with a human sortilin expression vector, followed by few rounds of passage with the appropriate selection agent.
On day1, S-18 cells are seeded in a 96 well plate. After 24 hrs, media is completely replaced with either media or one of the test compounds. All compounds were tested at 10 μM unless otherwise specified. Media is collected on day 3 and analyzed using PGRN ELISA (R&D). Cell viability is assessed by Cell TiterGlo (ProMega) to evaluate cytotoxic effect of the compounds.
On day 2, the compounds are added to the cells and incubated for a further 24 hrs, when the media is harvested and PGRN levels analyzed using ELISA kit.
A further experiment addresses hSortilin (Homo sapiens (Human), UniProt Q99523). The experiment is described as follows: hSortilin affinity assay: displacement of 3H-neurotensin binding, SPA format. The following applies: read-out: hSortilin NTS Binding, Inhibition at 50 μM. (In general: In a radioligand displacement assay an active substance lowers the binding of a labelled ligand.)

Chain of human sortilin (S-18 cells) (Q99523 78-831): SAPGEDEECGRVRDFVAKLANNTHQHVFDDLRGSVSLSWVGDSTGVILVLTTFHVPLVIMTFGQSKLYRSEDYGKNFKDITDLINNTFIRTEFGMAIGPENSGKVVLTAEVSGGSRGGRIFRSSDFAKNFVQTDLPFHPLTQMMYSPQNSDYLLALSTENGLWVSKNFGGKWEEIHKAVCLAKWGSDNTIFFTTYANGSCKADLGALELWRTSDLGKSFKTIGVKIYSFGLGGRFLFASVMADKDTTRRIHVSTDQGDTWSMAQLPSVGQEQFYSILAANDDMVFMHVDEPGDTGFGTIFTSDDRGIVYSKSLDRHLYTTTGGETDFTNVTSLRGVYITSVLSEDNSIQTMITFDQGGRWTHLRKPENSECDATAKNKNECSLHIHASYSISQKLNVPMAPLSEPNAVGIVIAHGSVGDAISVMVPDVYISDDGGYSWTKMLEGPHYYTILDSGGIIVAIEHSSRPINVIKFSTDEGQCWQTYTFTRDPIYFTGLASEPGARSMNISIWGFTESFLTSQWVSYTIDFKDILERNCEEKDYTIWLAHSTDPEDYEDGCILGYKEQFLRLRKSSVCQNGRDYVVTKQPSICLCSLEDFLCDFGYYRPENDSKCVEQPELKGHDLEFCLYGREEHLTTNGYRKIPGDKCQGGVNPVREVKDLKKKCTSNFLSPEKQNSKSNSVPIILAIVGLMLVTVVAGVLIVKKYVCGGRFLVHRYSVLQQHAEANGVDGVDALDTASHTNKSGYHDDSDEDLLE
Chain of hSortilin (Q99523 34-755): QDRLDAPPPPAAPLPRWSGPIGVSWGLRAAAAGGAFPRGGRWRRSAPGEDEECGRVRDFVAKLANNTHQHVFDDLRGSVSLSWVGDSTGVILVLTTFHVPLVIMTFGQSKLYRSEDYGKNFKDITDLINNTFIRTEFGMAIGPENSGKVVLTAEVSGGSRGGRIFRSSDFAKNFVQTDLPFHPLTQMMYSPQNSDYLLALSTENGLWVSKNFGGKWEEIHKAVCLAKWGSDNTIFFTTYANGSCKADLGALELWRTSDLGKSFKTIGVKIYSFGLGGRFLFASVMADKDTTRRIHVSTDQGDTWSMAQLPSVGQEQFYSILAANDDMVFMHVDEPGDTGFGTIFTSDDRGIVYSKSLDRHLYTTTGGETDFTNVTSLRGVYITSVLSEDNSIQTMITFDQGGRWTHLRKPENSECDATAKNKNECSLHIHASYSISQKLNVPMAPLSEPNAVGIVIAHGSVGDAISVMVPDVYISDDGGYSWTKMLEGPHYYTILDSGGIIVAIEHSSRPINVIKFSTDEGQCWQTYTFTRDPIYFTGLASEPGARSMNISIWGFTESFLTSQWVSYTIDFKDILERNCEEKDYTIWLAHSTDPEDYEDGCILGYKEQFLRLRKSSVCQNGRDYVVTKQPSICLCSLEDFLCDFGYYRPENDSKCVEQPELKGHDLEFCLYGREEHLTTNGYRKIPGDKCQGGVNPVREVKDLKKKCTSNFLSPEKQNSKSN

`Cc1cccc(NC(=O)c2ccc(C(F)(F)F)cc2C(=O)O)n1` [Example 1, N-(6-Methyl-pyridin-2-yl)-5-trifluoromethyl-phthalamic acid]: in experiment [1], the “PGRN levels in cell culture media, competition paradigm (FIG. 1)” value is given as “increase in PGRN levels”.

With `Cc1cccnc1NC(=O)c1ccc(Br)cc1C(=O)O` [Example 27, 5-Bromo-N-(3-methyl-pyridin-2-yl)-phthalamic acid], the inhibition (in general, the relative decrease from the control value, in per cent) at 50 µM at hSortilin stood at 64%.

As for `Cc1ccc(NC(=O)c2ccc(Br)cc2C(=O)O)cn1` [Example 31, 5-Bromo-N-(6-methyl-pyridin-3-yl)-phthalamic acid], at hSortilin, the inhibition at 50 µM stood at 70%.

As for “scrambled neurotensin: scrambled neurotensin, sequence LIYPRNEYELRKP (SEQ ID NO:1); does not bind sortilin, negative control (Scrambled Human Neurotensin) [reference compound]”, the “PGRN levels in cell culture media, competition paradigm (FIG. 1)” value in experiment [1] was “did not have any effect”.
